Assay results reported in patent publication EP0293294A2, “Imidazo[1,2-a]pyrimidines and their salts, process and intermediates for their preparation, their use as medicaments and compositions containing them” (ROUSSEL-UCLAF, priority 1987, dated 1988).

Molecular target: récepteurs des benzodiazépines
Assay: Benzodiazepine receptor binding, [³H] flunitrazépam displacement (modified Squires and Braestrup method)
Set-up: species or system rats
Conditions: concentration inhibiting by 50% the specific binding of 0,6 nanomoles of [³H] flunitrazépam; rat forebrain membrane preparations; read-out: Liaison aux récepteurs CI50
Text: L'affinité des composés pour les récepteurs des benzodiazépines a été évaluée en utilisant un radioligang [³H] flunitrazépam et la méthode de Squires et Braestrup (Nature, 1977, 266, 732) modifiée.
Les valeurs indiquées dans le tableau II ci-après sont les concentrations nanomolaires du produit testé qui inhibent dans une proportion de 50% la liaison spécifique de 0,6 nanomoles de [³H] flunitrazépam dans des préparations de membranes de cerveaux antérieurs de rats [(CI₅₀)en nanomoles].

Row | Compound | IC50 [µM]
1 | CCOC(=O)[C@@H]1C[C@H]1C(=O)c1cn2c(C)c(CC)c(OC)nc2n1 (relative stereo) [Exemple 1, trans 2-(6-éthyl 7-méthoxy 5-méthylimidazo [1,2-a]pyrimidin-2-oyl) cyclopropane carboxylate d'éthyle] | 0.56
2 | CCc1c(OC)nc2nc(C(=O)[C@@H]3C[C@H]3C)cn2c1C (relative stereo) [Exemple 5, trans (6-éthyl 7-méthoxy 5-méthylimidazo [1,2-a]pyrimidin-2-yl) 2-méthyl cyclopropyl méthanone] | 1.78

Results, then the compound that gave them:

Row | IC50 [µM] | Compound
3 | 0.18 | COc1nc2nc(C(=O)[C@@H]3C[C@H]3Cl)cn2c2c1CCCC2 (relative stereo) [Exemple 6, trans (6,7,8,9-tétrahydro 5-méthoxyimidazo [1,2 a]quinazolin--yl) 2-chlorocyclopropyl méthanone]
4 | 1 | COc1nc2nc(C(=O)[C@@H]3C[C@H]3C#N)cn2c2c1CCCC2 (relative stereo) [Exemple 11, trans 2-(6,7,8,9-tétrahydro 5-méthoxyimidazo [1,2-a]quinazolin-2-oyl) cyclopropane carbonitrile]
5 | 6.3 | COc1nc2nc(C(=O)C3(C)CC3)cn2c2c1CCCC2 [Exemple 4, (6,7,8,9-tétrahydro 5-méthoxyimidazo [1,2-a]quinazolin-2-yl) 1-méthyl cyclopropyl méthanone]
